Experimental data published in US10246469B2, “Biaryl kinase inhibitors” (BRISTOL-MYERS SQUIBB COMPANY, priority 2015, dated 2019).

Target: T1, GST-Xa-hAAK1 (Homo sapiens, UniProt Q2M2I8)
T1 construct: GST (N); Factor Xa cleavage site (Xa) (internal); made in house
Assay: AAK1 Kinase Assay
Type: biochemical
Conditions: bacterially expressed GST-Xa-hAAK1 3.5 nM; ATP 22 μM; fluoresceinated peptide 1.5 μM; 3 hours at room temperature; Caliper LabChip 3000
In short: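 Bacterially expressed GST-Xa-hAAK1 (3.5 nM) phosphorylated 1.5 μM 5-FAM peptide with 22 μM ATP in Tris pH 7.4, MgCl2, DTT, 1.6% DMSO, 3 h at room temperature. EDTA-stopped; product separated electrophoretically on Caliper LabChip. IC50 from eleven concentrations by non-linear regression.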

T1 sequence (Q2M2I8 whole entry): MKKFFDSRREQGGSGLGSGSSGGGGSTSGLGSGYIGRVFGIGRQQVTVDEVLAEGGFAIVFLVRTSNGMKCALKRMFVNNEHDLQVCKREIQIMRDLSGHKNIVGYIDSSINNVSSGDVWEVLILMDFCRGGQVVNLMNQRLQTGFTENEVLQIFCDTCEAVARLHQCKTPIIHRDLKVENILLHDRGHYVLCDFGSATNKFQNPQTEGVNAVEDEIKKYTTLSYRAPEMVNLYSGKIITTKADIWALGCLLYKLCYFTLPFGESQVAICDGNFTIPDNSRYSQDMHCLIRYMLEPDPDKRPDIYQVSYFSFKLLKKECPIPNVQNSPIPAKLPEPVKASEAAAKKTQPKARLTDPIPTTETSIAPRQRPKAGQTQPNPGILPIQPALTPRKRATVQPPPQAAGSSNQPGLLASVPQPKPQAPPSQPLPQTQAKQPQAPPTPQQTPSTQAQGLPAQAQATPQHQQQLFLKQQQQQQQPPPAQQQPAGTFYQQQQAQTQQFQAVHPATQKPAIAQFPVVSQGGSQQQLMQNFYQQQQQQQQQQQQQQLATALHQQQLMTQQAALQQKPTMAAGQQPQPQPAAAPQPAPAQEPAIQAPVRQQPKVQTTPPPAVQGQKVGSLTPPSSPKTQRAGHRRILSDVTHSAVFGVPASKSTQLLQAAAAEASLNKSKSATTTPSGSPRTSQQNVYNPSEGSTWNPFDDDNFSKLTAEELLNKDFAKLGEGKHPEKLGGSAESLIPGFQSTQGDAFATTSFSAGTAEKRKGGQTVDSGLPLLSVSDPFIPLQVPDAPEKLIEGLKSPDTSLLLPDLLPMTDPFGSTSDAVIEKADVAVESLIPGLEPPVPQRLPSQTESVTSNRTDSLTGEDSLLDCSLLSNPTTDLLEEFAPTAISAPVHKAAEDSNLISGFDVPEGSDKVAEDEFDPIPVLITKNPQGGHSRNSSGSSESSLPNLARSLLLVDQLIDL

## CC(C)C[C@](C)(N)COc1ccc(-c2ccnc3ccnn23)cc1F [Example 461, (S)-1-(2-fluoro-4-(pyrazolo [1,5-a]pyrimidin-7-yl)phenoxy)-2,4-dimethylpentan-2-amine]
  IC50: 0.0029 µM

## CC(=O)Nc1cc(-c2ccc(OC[C@@](C)(N)CC(C)C)c(F)c2)n2nccc2n1 [Example 463, (S)—N-(7-(4-((2-amino-2,4-dimethylpentyl)oxy)-3-fluorophenyl)pyrazolo [1,5-a]pyrimidin-5-yl) acetamide]
  IC50: 0.184 µM

## Cc1cc(-c2ccc(OC[C@@](C)(N)CC(C)C)c(C#N)c2)n2nc(C)cc2n1 [Example 464, (S)-2-((2-amino-2,4-dimethylpentyl)oxy)-5-(2,5-dimethylpyrazolo[1,5-a]pyrimidin-7-yl)benzonitrile]
  IC50: 0.495 µM

## CC(C)C[C@](C)(N)COc1ccc(-c2ccnc(NC3CCNCC3)c2)cc1C#N [Example 466, (S)-2-(2-amino-2,4-dimethylpentyloxy)-5-(2-(piperidin-4-ylamino)pyridin-4-yl) benzonitrile]
  IC50: 0.064 µM

## CC(C)C[C@](C)(N)COc1ccc(-c2ccnc3ccnn23)cc1C(F)(F)F [Example 467, (S)-2,4-dimethyl-1-(4-(pyrazolo[1,5-a]pyrimidin-7-yl)-2-(trifluoromethyl)phenoxy)pentan-2-amine]
  IC50: 0.0004 µM

## CC(C)C[C@](C)(N)COc1ccc(-c2ccnc(NC3CCOCC3)c2)cc1C#N [Example 468, (S)-2-(2-amino-2,4-dimethylpentyloxy)-5-(2-(tetrahydro-2H-pyran-4-ylamino)pyridin-4yl)benzonitrile]
  IC50: 0.054 µM

## CC(C)C[C@](C)(N)COc1ccc(-c2ccnc(NC3CCNCC3)c2)cc1C(F)(F)F [Example 470, (S)-4-(4-(2-amino-2,4-dimethylpentyloxy)-3-(trifluoromethyl)phenyl)-N-(piperidin-4-yl)pyridin-2-amine]
  IC50: 0.138 µM

## CC(C)C[C@](C)(N)COc1ccc(-c2ncnc3cc(F)c(F)cc23)cc1C(F)(F)F [Example 471, (S)-1-(4-(6,7-difluoroquinazolin-4-yl)-2-(trifluoromethyl)phenoxy)-2,4-dimethylpentan-2-amine]
  IC50: 0.0063 µM

## Cc1cc(-c2ccnc3ccnn23)ccc1OC[C@@](C)(N)CC(C)C [Example 472, (S)-2,4-dimethyl-1-(2-methyl-4-(pyrazolo[1,5-a]pyrimidin-7-yl)phenoxy)pentan-2-amine]
  IC50: 0.0005 µM

## CC(C)C[C@](C)(N)COc1ccc(-c2cnn3cccnc23)cc1C(F)(F)F [Example 473, (S)-2,4-dimethyl-1-(4-(pyrazolo[1,5-a]pyrimidin-3-yl)-2-(trifluoromethyl)phenoxy)pentan-2-amine]
  IC50: 0.112 µM

## Cc1nc(-c2cnn3cc(C#N)cnc23)ccc1OC[C@@](C)(N)CC(C)C [Example 478, (S)-3-(5-((2-amino-2,4-dimethylpentyl)oxy)-6-methylpyridin-2-yl)pyrazolo[1,5-a]pyrimidine-6-carbonitrile]
  IC50: 0.011 µM

## Cc1nc(-c2ccc(OC[C@@](C)(N)CC(C)C)c(C(F)(F)F)c2)c2ccsc2n1 [Example 481, (S)-2,4-dimethyl-1-(4-(2-methylthieno[2,3-d]pyrimidin-4-yl)-2-(trifluoromethyl)phenoxy)pentan-2-amine]
  IC50: 0.052 µM

## CC(C)C[C@](C)(N)COc1ccc(-c2ccnc3cc(C4CC4)nn23)cc1Cl [Example 482, (S)-1-(2-chloro-4-(2-cyclopropylpyrazolo[1,5-a]pyrimidin-7-yl)phenoxy)-2,4-dimethylpentan-2-amine]
  IC50: 0.0014 µM

## CC(C)C[C@](C)(N)COc1ccc(-c2ccnc3cc(C4CC4)nn23)cc1C(F)(F)F [Example 483, (S)-1-(4-(2-Cyclopropylpyrazolo[1,5-a]pyrimidin-7-yl)-2-(trifluoromethyl)phenoxy)-2,4-dimethylpentan-2-amine]
  IC50: 0.0027 µM

## CC(C)C[C@](C)(N)COc1ccc(-c2ccnc3cc(C(F)(F)F)nn23)cc1C#N [Example 485, (S)-2-((2-amino-2,4-dimethylpentyl)oxy)-5-(2-(trifluoromethyl)pyrazolo[1,5-a]pyrimidin-7-yl)benzonitrile]
  IC50: 0.0045 µM

## CC(C)C[C@](C)(N)COc1cnc(-c2ccnc3ccnn23)cc1C#N [Example 486, (S)-5-((2-amino-2,4-dimethylpentyl)oxy)-2-(pyrazolo[1,5-a]pyrimidin-7-yl)isonicotinonitrile]
  IC50: 1.37 µM

## Cc1nc(-c2ccnc3ccnn23)ccc1OC[C@@](C)(N)CC(C)C [Example 488, (S)-2,4-dimethyl-1-((2-methyl-6-(pyrazolo[1,5-a]pyrimidin-7-yl)pyridin-3-yl)oxy)pentan-2-amine]
  IC50: 0.004 µM

## CC(C)C[C@](C)(N)COc1cc(F)c(-c2ccnc3ccnn23)cc1F [Example 489, (S)-1-(2,5-difluoro-4-(pyrazolo[1,5-a]pyrimidin-7-yl)phenoxy)-2,4-dimethylpentan-2-amine]
  IC50: 0.278 µM

## Cc1nc(-c2ccnc3ccnn23)ccc1OCC(N)(CC(C)C)C(F)(F)F (stereo not drawn) [Example 490, 1,1,1-trifluoro-4-methyl-2-(((2-methyl-6-(pyrazolo[1,5-a]pyrimidin-7-yl)pyridin-3-yl)oxy)methyl)pentan-2-amine]
  IC50: 0.037 µM

## Cc1cn2nccc(-c3ccc(OC[C@@](C)(N)CC(C)C)c(C#N)c3)c2n1 [Example 492, (S)-2-((2-amino-2,4-dimethylpentyl)oxy)-5-(2-methylimidazo[1,2-b]pyridazin-8-yl)benzonitrile]
  IC50: 0.0018 µM

## CC(C)C[C@](C)(N)COc1ccc(-c2ccnn3cc(C4CC4)nc23)cc1F [Example 493, (S)-1-(4-(2-cyclopropylimidazo[1,2-b]pyridazin-8-yl)-2-fluorophenoxy)-2,4-dimethylpentan-2-amine]
  IC50: 0.015 µM

## CC(C)C[C@](C)(N)COc1ccc(-c2cc(Cl)nn3cc(C4CC4)nc23)cc1C#N [Example 494, (5)-2-((2-amino-2,4-dimethylpentyl)oxy)-5-(6-chloro-2-cyclopropylimidazo[1,2-b]pyridazin-8-yl)benzonitrile]
  IC50: 0.222 µM

## Cc1cn2nc(Cl)cc(-c3ccc(OC[C@@](C)(N)CC(C)C)c(C(F)(F)F)c3)c2n1 [Example 495, (S)-1-(4-(6-chloro-2-methylimidazo [1,2-b]pyridazin-8-yl)-2-(trifluoromethyl)phenoxy)-2,4-dimethylpentan-2-amine]
  IC50: 0.066 µM

## CC(C)C[C@](C)(N)COc1ccc(-c2cc(Cl)nn3cc(C4CC4)nc23)cc1C(F)(F)F [Example 496, (S)-1-(4-(6-chloro-2-cyclopropylimidazo [1,2-b]pyridazin-8-yl)-2-(trifluoromethyl)phenoxy)-2,4-dimethylpentan-2-amine]
  IC50: 0.297 µM

## Cc1cn2nccc(-c3ccc(OC[C@@](C)(N)CC(C)C)c(F)c3)c2n1 [Example 497, (S)-1-(2-fluoro-4-(2-methylimidazo [1,2-b]pyridazin-8-yl)phenoxy)-2,4-dimethylpentan-2-amine]
  IC50: 0.011 µM

## Cc1cn2nccc(-c3ccc(OC[C@@](C)(N)CC(C)C)c(C(F)(F)F)c3)c2n1 [Example 498, (S)-2,4-dimethyl-1-(4-(2-methylimidazo[1,2-b]pyridazin-8-yl)-2-(trifluoromethyl)phenoxy)pentan-2-amine]
  IC50: 0.0005 µM

## CC(C)C[C@](C)(N)COc1ccc(-c2ccnn3cc(C4CC4)nc23)cc1C#N [Example 499, (S)-2-((2-amino-2,4-dimethylpentyl)oxy)-5-(2-cyclopropylimidazo[1,2-b]pyridazin-8-yl)benzonitrile]
  IC50: 0.0012 µM
